According to US20240103005A1, “N-ACRYLOYLINDOLES AND METHODS OF USE” (The University of Hong Kong, priority 2022, published 2024):

What was measured:
[1] = Reaction kinetics of cysteine-reactive compounds with N-acetyl-L-cysteine methyl ester (LC-MS); type: physicochemical
Protocol: Reaction Kinetics of Cysteine-Reactive Compounds with N-Acetyl-L-Cysteine Methyl Ester
Stock solution of cysteine-reactive compound in DMSO was diluted by PBS/MeOH solution mixture (4:1, v/v; 500 μL), reaching final concentration of 10 μM. Stock solution of N-acetyl-L-cysteine methyl ester in DMSO was then freshly prepared, and added to the compound solution at final concentration of 250 μM. The solution mixture was incubated at room temperature, and at predetermined time intervals, an aliquot of the reaction mixture (10 μL) was sent for LC-MS analysis on Waters Autopurification System using a SunFire C18 HPLC column (50×4.6 mm with 5 μm diameter particles, Waters). Separation was achieved by gradient elution from 5% to 100% MeCN in water (constant 0.1 vol % formic acid) over 4 min, isocratic elution with 100% MeCN (with 0.1 vol % formic acid) from 4 to 8 min, and returning to 5% MeCN in water (with 0.1 vol % formic acid) and equilibrated for 2 min. Selected ion chromatograms, with m/z corresponding to the molecular ion of the compound and/or the adduct, were extracted and the data was analyzed using MassLynx™ software by calculating the area under the curve. The peak area was then calibrated to concentration of the compound/adduct by a set of solution mixtures containing known concentrations of the compound/adduct.
The reactivity of NAIA with cysteine in aqueous buffer solution has been investigated by LC-MS experiments (FIGS. 1A-1J). […] Upon addition of N-acetylcysteine methyl ester (250 μM), NAIA-5 reacted quickly and completely with N-acetylcysteine methyl ester within […], as reflected by the diminishment of the peak of NAIA-5 at t=6.20 min with a concomitant growth of a new peak at t=5.60 min in the LC, which is attributable to the cysteine adduct of NAIA-5 based on the MS (FIGS. 1B-1G). […] This highlights the important contribution of aromaticity of indole scaffold to increase electrophilicity of acrylamide warhead for fast and complete cysteine reaction in aqueous buffer solution.
Next, we monitored the reaction between NAIA-amide (10 μM) and N-acetylcysteine methyl ester (250 μM) by LC-MS analysis (FIG. 17A). Complete conversion of NAIA-C5 amide was observed within 40 s as indicated by the disappearance of NAIA-C5 amide peak (t=5.09 min) and emergence of the adduct peat (t=4.80 min) in the LC trace (FIG. 17B). Likewise, the reaction of NAIA-C4 amide proceeded with fast kinetics and was completely consumed in 1 min (FIG. 17C). The calculated rate constant of NAIA-C5 amide and NAIA-C4 amide were 2-fold and 1.2-fold faster than NAIA (FIG. 17D). […] Owning to the excellent reaction rate of NAIA-C5 amide, it was taken forward for further comparative analysis in subsequent experiments.

HepG2 cell lysates = assay: Gel-based ABPP, in vitro Cys labeling of HepG2 cell lysates (in-gel fluorescence); type: biochemical
Protocol: In-Gel Fluorescence for Visualizing Cys Labeling by NAIAs and IAA In Vitro
HepG2 or 231MFP cells were lysed by probe sonication in DPBS, and cell debris were removed by centrifugation at 1,000 g for 5 min. Protein concentration of the lysates was determined by bicinchoninic acid (BCA) assay, and the lysates were then diluted to 2 mg/mL by DPBS. 50 μL of the lysates were incubated with indicated concentrations of NAIA-4, NAIA-5 or IAA for indicated time interval at room temperature. […] Samples were then separated by molecular weight on precast 4-20% TGX gels (Thermo Scientific) and scanned by ChemiDoc MP (Bio-Rad Laboratories, Inc) for measuring in-gel fluorescence. […]
With the in vitro characterization data in hand, we next moved to investigate the ability of NAIA in labeling functional cysteines in cell lysates and live cells. […] After the reaction, the protein mixture was resolved by sodium dodecyl sulphate-polyacrylamide gel electrophoresis (SDS-PAGE) and in-gel fluorescence was measured. […] The fluorescence intensity from these labeled protein bands can then reflect the degree of cysteine labeling by the probes. […]

[2] = compound 10 μM, N-Ac-Cys-OMe 250 μM, PBS/MeOH 4:1

| SMILES | time to complete reaction with N-acetylcysteine methyl ester [1, 2] [s] | cysteine labeling (in-gel fluorescence) compared with IAA, time-dependent (HepG2 cell lysates; 1 and 10 μM, 15 and 30 min) | cysteine labeling (in-gel fluorescence) compared with IAA (HepG2 cell lysates; 1 h incubation, three doses) | reaction kinetics with cysteine (k) ([1]; FIG. 7 legend summary) | cysteine reaction rate (in words) ([1]; compound 10 μM, N-Ac-Cys-OMe 250 μM) | compound left unreacted [1, 2] |
| --- | --- | --- | --- | --- | --- | --- |
| C#CCCCCNC(=O)COc1ccc2c(ccn2C(=O)C=C)c1 [NAIA-5] | ≤ 300 | more cysteine labeling by NAIA-5 than IAA was found at 1 and 10 μM for both 15 and 30 min incubation | more cysteine labeling than IAA at all the three doses tested |  |  |  |
| C#CCCCCNC(=O)CI [IAA, N-Hex-5-ynyl-2-iodoacetamide, reference compound] |  |  |  | ~10^0 M^−1 s^−1 | react much slower with cysteine than our NAIAs | more than 40% |
